How the values were obtained:
[1] = tested on: H1975 tumor cells; assay: In vivo tumor growth inhibition, xenograft; design: species or system Bab/c nude mice; details: Mus musculus, NCI-H1975, po, 456 h; 25 mg/kg intragastric once daily, day 19; read-out: TGI (%) H1975
In short: (§1)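 Female Bab/c nude mice (6–8 weeks) carried subcutaneous H1975, PC-9 or NCI-N87 xenografts and were dosed from 100–200 mm^3 tumors. Dosing was 25 mg/kg intragastrically once daily in a PEG400/Tween-80/propylene glycol suspension for up to 30 days. TGI was derived from caliper volumes (½ab^2) versus vehicle.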

[2] = tested on: HER2/ErbB2 amplified cell line N87; assay: In vivo tumor growth inhibition, xenograft; design: species or system Bab/c nude mice; details: Mus musculus, po, 456 h, 25 mg/kg intragastric once daily, day 19, read-out: TGI (%)
In short: as §1

[3] = tested on: PC-9 tumor cells; assay: In vivo tumor growth inhibition, xenograft; design: species or system Bab/c nude mice; details: Mus musculus, po, 456 h; 25 mg/kg intragastric once daily, day 19; read-out: TGI (%) PC-9
In short: as §1

[4] = tested on: K562 (BCR-ABL); assay: Growth inhibition GI50 in vitro (CCK8/MTT, 72 h); type: cell-based; details: Homo sapiens
Protocol: Human leukemia cell line K562 (expressing BCR-ABL fusion protein) (ATCC) was cultured with 1×RPMI1640 complete medium (supplement with 10% FBS).
(§2) The suspension cells were collected by centrifugation. The supernatant was discard and the cell pellet was resuspended and counted. Different cell concentrations (5˜10×10^4 cells/mL) were prepared according to the growth cycle of each cell line and then seeded on a 96-well plate (Corning), 100 μL/well. The cells were incubated over night at 37° C., 5% CO2. The compounds were added to the cells on the second day with 2 wells in parallel. The final concentration of organic solvent shall not exceed 1%. The cells were continually incubated for 72 h, and then subjected to MTT assay.
(§3) The present compounds and the reference compounds were dissolved with DMSO (Sigma), respectively. […] The storage concentration of compounds was 10 mM and kept at −20° C. They were diluted by 2 times or 10 times with serial dilution before using.
(§4) Dojindo CCK8 reagent kit was used as MTT assay. […] FC meter was used as microplate reader.
(§5) Adherent cell culture medium was discard and immediately replaced with fresh prepared medium which contains 10% CCK8 reagent (100 μL/well). For the suspension cells, CCK8 was directly added to 10% of the final concentration. The cells were continually incubated for 1˜4 h. When the color of control wells turned to dark yellow, the absorption value was measured at OD450 nm. The cell growth rate was calculated according to the following formula: cell growth rate (%)=100*(T−T0)/(C−T0), T=optical density of drug treatment cell well—optical density of blank control well; T0=optical density of cell well before drug treatment—optical density of blank control well; C=optical density of cell well of solvent control group—optical density of blank control well. […] The experiment was independently repeated 1˜3 times, and subject to biological statistical analysis.
(§6) Growth inhibition assay was conducted in the cell lines shown Table 14 with the different oncogene mutations. Each compound started at 1000 nM as an initial concentration and was diluted by 2 times with serial dilution to 0.03 nM.

[5] = tested on: MV4-11 (FLT3-ITD); assay: Growth inhibition GI50 in vitro (CCK8/MTT, 72 h); type: cell-based, human
Protocol: FLT3 is a kind of PTK and about 20-30% of patients with acute myelocytic leukemia (AML) in clinic express FLT3-ITD mutation protein. FLT3-ITD positive cell line MV4-11 was cultured with 1×RPMI1640 complete medium (supplement with 10% FBS).
as §2, §3, §4, §5, §6

[6] = tested on: H2170 (Her2 amp); assay: Growth inhibition GI50 in vitro (CCK8/MTT, 72 h); type: cell-based; details: Homo sapiens, NCI-H2170, H2170, EGFR wt
[7] = tested on: HCC1954 (Her2 amp); assay: Growth inhibition GI50 in vitro (CCK8/MTT, 72 h); type: cell-based; details: Homo sapiens, HCC1954, EGFR wt
[8] = tested on: ZR-75-30 (Her2 amp); assay: Growth inhibition GI50 in vitro (CCK8/MTT, 72 h); type: cell-based; details: Homo sapiens, ZR-75-30, EGFR wt
[9] = tested on: Karpas-299 (NPM-ALK); assay: Growth inhibition GI50 in vitro (CCK8/MTT, 72 h); type: cell-based; details: Homo sapiens, Karpas-299, EGFR wt

GI50 [4]	GI50 ([5]; Homo sapiens, MV4-11, FLT3-ITD)	GI50 [6]	GI50 [7]	GI50 [9]	SMILES	inhibition in vivo at 25 mg/kg [1]	inhibition in vivo at 25 mg/kg [2]	inhibition in vivo at 25 mg/kg [3]	inhibition effects ([5]; FLT3-ITD+ MV4-11 cells)	GI50 [8]
–	–	–	–	–	C=CC(=O)Nc1cc(Nc2nccc(-n3ccc4c(OC)cccc43)n2)c(OC)cc1N(C)CCN(C)C [Compound 99, N-(5-(4-(4-methoxyl-1H-indol-1-yl)-pyrimidin-2-ylamino)-2-(2-(dimethylamino-ethyl)-methyl-amino)-4-methoxyl-phenyl)-acrylamide]	94.6%	95.4%	95.8%	–	–
–	–	–	–	–	C=CC(=O)Nc1cc(Nc2ncnc(Nc3cccc(Br)c3)n2)c(OC)cc1N(C)CCN(C)C [Compound 115, N-(5-(4-(3-bromo-phenylamino)-[1,3,5]triazin-2-ylamino)-2-((2-dimethylamino-ethyl)-methyl-amino)-4-methoxyl-phenyl)-acrylamide]	59.1%	97.8%	97.1%	–	–
> 1000 nM	> 1000 nM	12.5 nM	156 nM	> 1000 nM	C=CC(=O)Nc1cc(Nc2cc(-c3cn(C(C)C)c4ccccc34)ncn2)c(OC)cc1N(C)CCN(C)C [Compound 183]	97.4%	97.7%	98.8%	moderate inhibition effects	6 nM
–	–	–	–	–	C=CC(=O)Nc1cc(Nc2cc(-c3cn(C(C)C)c4ccc(F)cc34)ncn2)c(OC)cc1N(C)CCN(C)C [Compound 191, N-(5-(6-(5-fluoro-1-isopropyl-1H-indol-3-yl)-pyrimidin-4-ylamino)-4-methoxyl-2-((2-dimethylamino-ethyl)-methyl-amino)-phenyl)-acrylamide]	99.3%	96.6%	98.8%	–	–
